# Key:
# Assay type in all cases: in vivo, mouse
# Nox 2 = test: Immunoblot of hind limb Nox 2 expression; settings: ischemic limb, non-diabetic mice, n=4, P>0.05
# Experimental: (§1) Hind limb tissue including the gastrocnemius and adductor muscles were isolated and collected at 14 or 28 days. Tissues were separated and implanted in OCT or placed in cryovials and snap-frozen in liquid nitrogen or were fixed in 10% formalin for 24-hours and then moved to 70% ethanol for storage.
# (§2) Gastrocnemius samples were stored at −80° C. and then mechanically homogenized in ice-cold lysis buffer containing 150 mmol/L NaCl, 200 mmol/L Tris-HCl (pH 8.0), 1% Triton X-100, 0.5% deoxycholic acid, 0.1% SDS, N-ethylmaleimide (25 mM) and protease inhibitors (cOmplete™ EDTA-free, Roche Diagnostics). 30 μg of protein lysate was denatured and run under reducing conditions on SDS-PAGE (Bolt™ pre-cast gels and reagents, Thermofisher Scientific, Australia) and transferred onto Immobilon polyvinylidene fluoride membrane (Merck Millipore, Australia). […] Membranes were detected using an Odyssey imaging platform (Licor, USA).
# C57BL6/J mice [1] = test: Hind limb ischemia in type 1 diabetes model, laser Doppler perfusion
# Experimental: Male C57BL6/J mice 8-10 weeks of age were obtained from Australian BioResources (Moss Vale, NSW) with 12 hour light/dark cycles and free access to water and mouse chow (Specialty Feeds, Australia). Mice were housed in groups of 2-5 in standard cages within a Physical Containment Level 2 laboratory. For in vivo angiogenesis 16 mice underwent the femoral vascular ligation model. Mice were anaesthetized with 1.5-2% isoflurane vaporized in oxygen and constant body temperature was maintained. All mice received pre-operative and 24-hour post-operative analgesia (carprofen, 5 mg/kg s.c). A small incision (˜15 mm) was made in the hind limb skin directly over the femoral vasculature. A portion of the femoral artery and vein, distal to the origin of the profunda femoris artery and proximal to the saphenous artery, were isolated and two ligations were performed using 6-0 silk sutures. The femoral artery and vein were then excised between the ligation sites 27. […] Hind limb blood flow was assessed prior to ligation (baseline) and immediately after undergoing hind limb ischemia, with subsequent imaging at day 3, 7, 10, 14, 21 and 28 post hind limb ischemia. […] The rate of reperfusion in the hind limb was calculated as a ratio of blood flow in the ischemic versus non-ischemic contralateral limb. […]
# C57BL6/J mice [2] = test: Murine hind limb ischemia model, laser Doppler perfusion (non-diabetic mice)
# Experimental: Male C57BL6/J mice 8-10 weeks of age were obtained from Australian BioResources (Moss Vale, NSW) with 12 hour light/dark cycles and free access to water and mouse chow (Specialty Feeds, Australia). Mice were housed in groups of 2-5 in standard cages within a Physical Containment Level 2 laboratory. For in vivo angiogenesis 16 mice underwent the femoral vascular ligation model. Mice were anaesthetized with 1.5-2% isoflurane vaporized in oxygen and constant body temperature was maintained. All mice received pre-operative and 24-hour post-operative analgesia (carprofen, 5 mg/kg s.c). A small incision (˜15 mm) was made in the hind limb skin directly over the femoral vasculature. A portion of the femoral artery and vein, distal to the origin of the profunda femoris artery and proximal to the saphenous artery, were isolated and two ligations were performed using 6-0 silk sutures. The femoral artery and vein were then excised between the ligation sites 27. An osmotic mini-pump (model 1002 [for 14 day protocols] or model 1004 [for 28 day protocols], Alzet, USA) containing either CL 316,243 (1 mg/kg/day) or vehicle (normal saline) was then implanted via the femoral skin opening and tunneled around and positioned in the dorsal flank. The mice were randomized 1:1 to treatment protocols prior to undergoing surgery. The skin was closed with non-continuous suture (Prolene 6-0, Johnson and Johnson Medical, Australia). Hind limb blood flow was assessed prior to ligation (baseline) and immediately after undergoing hind limb ischemia, with subsequent imaging at day 3, 7, 10, 14, 21 and 28 post hind limb ischemia. Some experiments were stopped at 14 days for assessment of hind limb histology and biochemistry. Software was used to analyze the perfusion flux (Moor, UK) and investigators were blinded to the treatment groups during the period of analysis. The rate of reperfusion in the hind limb was calculated as a ratio of blood flow in the ischemic versus non-ischemic contralateral limb.
# superoxide = test: Superoxide generation by lucigenin enhanced chemiluminescence in hind limb tissue; settings: after 14 days of infusion
# Experimental: as §1
# Frozen adductor tissue was prepared for lucigenin-enhanced chemiluminescence assay by homogenising in lysis buffer (250 mM sucrose in phosphate-buffered saline (mM: 129 NaCl, 7 Na2HPO4, 3 NaH2PO4·2H2O, pH 7.4, with protease inhibitors (cOmplete™ EDTA-free, Roche Diagnostics). Sample was added to opaque 96-well plates in the presence of lucigenin (20 μmol/1 N,N′-Dimethyl-9,9′-biacridinium dinitrate) and NADPH (100 μM; β-Nicotinamide adenine dinucleotide 2′-phosphate reduced tetrasodium salt hydrate). The reaction was conducted at room temperature and tracked using a luminometer (Veritas, Turner Biosystems, USA) with an average measurement taken from 20 cycles, as described in Bubb et al., (2018, Microcirulation, e12501). Replicates of each sample were treated with manganese TMPyP (Merck Millipore, Australia, a cell-permeable superoxide dismutase mimetic, 30 μmol/L), during the assay and any signal was subtracted from the total signal as non-superoxide background signal. Superoxide production was normalized to protein concentration or cell count.
# Nox 4 = test: Immunoblot of hind limb Nox 4 expression
# Experimental: as §1, §2
# nitrotyrosine = test: Immunoblot of nitrotyrosine in hind limb tissue; settings: ischemic hind limbs of type 1 diabetic mice
# Experimental: Gastrocnemius samples were stored at −80° C. and then mechanically homogenized in ice-cold lysis buffer containing 150 mmol/L NaCl, 200 mmol/L Tris-HCl (pH 8.0), 1% Triton X-100, 0.5% deoxycholic acid, 0.1% SDS, N-ethylmaleimide (25 mM) and protease inhibitors (cOmplete™ EDTA-free, Roche Diagnostics). 30 μg of protein lysate was denatured and run under reducing conditions on SDS-PAGE (Bolt™ pre-cast gels and reagents, Thermofisher Scientific, Australia) and transferred onto Immobilon polyvinylidene fluoride membrane (Merck Millipore, Australia). Membranes were incubated in primary antibodies directed at determining protein expression of the following: Nox isoforms (anti-Nox 2, 1:5000; Abcam, Australia; anti-Nox-4, 1:5000; Abcam, Australia); reactive nitrogen species (anti-nitrotyrosine, 1:1000; Abcam, Australia); and both expression and phosphorylation of eNOS (anti Phospho eNOS serine 1177, 1:1000, Cell Signaling Technology, USA; anti-eNOS 1:1000, BD Biosciences, USA) and Akt (anti Phospho Akt 1:1000, Akt 1:1000, Cell Signaling Technology, USA). Specific secondary antibodies recognizing rabbit or mouse primary antibodies were used (IRDye®, Licor; 1:20,000, USA). Membranes were detected using an Odyssey imaging platform (Licor, USA).
# eNOS = test: NOS activity by radioimmunoassay in hind limb tissue; settings: ischemic and non-ischemic limbs, 14 days post-surgery
# Experimental: as §1
# The activity of NOS was measured using radioimmunoassay according to manufacturer's instructions (Cayman Chemical, USA). Samples were prepared in triplicate and detected using a liquid scintillation counter (5 min detection, Tri-Carb 4910TR 100V, Perkin Elmer, USA). All samples were also assayed in the presence of L-NAME and this was subtracted from the baseline to give a readout of NOS activity.
# [3] = Glucose tolerance testing in type 2 diabetes model
# Experimental: Glucose tolerance testing was conducted in fasted type 2 diabetic mice. Rodent chow was removed overnight and testing was conducted in the morning. After baseline glucose testing mice were injected intraperitoneal with sterile D-glucose (2 g/kg). Repeated blood glucose sampling was conducted every 15-30 minutes for 2 hours.
compound,measurement,setting,value
"C[C@H](Cc1ccc2c(c1)OC(C(=O)[O-])(C(=O)[O-])O2)NC[C@H](O)c1cccc(Cl)c1.[Na+].[Na+] [CL 316,243]",Nox 2 hind limb protein expression,Nox 2,1.04±0.46 fold change from vehicle
same,perfusion ratio,"C57BL6/J mice [1]; citrate-buffer treated (non-diabetic) mice, also 14-28 days post-ischemia",not different from vehicle controls
same,greater ischemic-non-ischemic ratio (reperfusion),"C57BL6/J mice [1]; type 1 diabetes mice, from 14 days onwards, 1 mg/kg/day s.c., vs vehicle",~20
same,perfusion in the ischemic limbs,"C57BL6/J mice [2]; 1 mg/kg/day subcutaneous infusion, 10-14 days following ischemic injury, vs vehicle",significantly increased perfusion
same,perfusion in the non-ischemic limb,C57BL6/J mice [2]; 1 mg/kg/day systemic infusion,increased perfusion
same,ischemic non-ischemic ratio of perfusion,"C57BL6/J mice [2]; 14 days of hind limb ischemia, vs vehicle",no differences
same,superoxide bioavailability in the ischemic limb,superoxide,significantly lower
same,Nox 4 hind limb protein expression,"Nox 4; ischemic limb, non-diabetic mice, n=4, P>0.05",0.88±0.28 fold change from vehicle
same,diabetes-induced elevation in Nox4 expression,"Nox 4; type 1 diabetic mice, ischemic and non-ischemic limb, back to control levels",markedly reduced
same,decrease of nitrotyrosine protein levels,nitrotyrosine,> 70%
same,eNOS activity,eNOS,enhanced eNOS activity
same,fasted blood glucose levels,"[3]; fasted for glucose tolerance tests, did not reach significant difference",appeared lower
same,glucose tolerance,"[3]; non-hyperglycemic, non-diabetic controls",even improved
same,glucose tolerance,[3]; type 2 diabetic mice,improved
